Like-named read-outs stand apart in the source and are kept apart here.
How the values were obtained:
[1] = tested on: Balb/c 3T3 mouse fibroblast cells; test: 3T3 neutral red uptake (NRU) phototoxicity test; type: cell-based
Excerpt: A pharmacophore for phototoxicity was developed to be used as an in silico screening tool to determine the minimum phototoxic concentration for a number of AAQMS (WR069878 and those indicated in Table 5). Minimum phototoxic concentration in a yeast assay for a number of AAQMS, as per Ison et al.; Phototoxicity of Quinoline methanols and other drugs in mice and yeast; J. Invest. Dermatol. (52)193-198 (1969) were used to generate a three-dimensional pharmacophore model using the HypoGen algorithm of the […]® (Accelrys software Inc.) methodology as per Bhattacharjee et al.; A 3D QSAR pharmacophore model and quantum chemical structure—activity analysis of chloroquine(CQ)-resistance reversal; J. Chem Inf. Comput Sci. (42) 1212-1220 (2002), and Dow et al.; as discussed in Antimicrob Agents Chemother. (48)2624-2632 (2004), cited above, both Bhattacharjee et al. and Dow et al, incorporated herein, by reference. The structures of clinically used quinoline methanols were mapped onto the pharmacophores and estimated values for minimum phototoxic concentration were generated. The 3T3 neutral red uptake (NRU) phototoxicity test, conducted by MB Research Laboratories (Spinnerstown, Pa.), was used to identify quinoline methanols (WR069878 and those in Table 5) that have the potential to exert in vivo phototoxicity after systemic application. Briefly, the central 60 wells of two 96-well plates per AAQM were seeded with Balb/c 3T3 mouse fibroblast cells and maintained in culture for 24 hrs. These plates were then pre-incubated with a range of eight different concentrations of test compound (six wells per concentration) for one hour. Next, one plate was treated with a UVA dose of 5 J/cm2 by irradiating for 50 min at 1.7 mW/cm2, whereas the other plate remained non-treated and in the dark. Next, the treatment medium was replaced with culture medium and cell viability was determined after 24 hrs by measuring neutral red uptake for 3 hrs. Finally, the 3T3 NRU Phototox Prediction Software (version 2.0, ZEBET) was used to calculate EC50 values and Photo-Irritant Factors (PIF) for each compound. […]

[2] = by 'injection'; Ison and Davis, 1969; cited from earlier work
yeast = conditions: Ison and Davis, 1969; cited from earlier work
P. falciparum TM91C235 = test: In vitro antimalarial activity against P. falciparum TM91C235; type: cell-based, Plasmodium falciparum
Protocol: The in vitro activities of AAQMs against P. falciparum strains W2, D6, TM91C235 and TM90C2A were evaluated using the method of Desjardins et al. as modified by Milhous et al. W2 is chloroquine resistant and mefloquine sensitive, D6 is chloroquine sensitive but naturally less susceptible to mefloquine, TM91C235 is resistant to mefloquine, chloroquine and pyrimethamine as is TM90C2A, however this latter parasite is a two pfmdr1 copy strain. We routinely run mefloquine in this screen as a control to ensure assay validity.

[3] = mouse, in vivo
[4] = tested on: Plasmodium falciparum malaria; conditions: P. falciparum malaria, South East Asia; WR030090: field trials; cited from earlier work
[5] = Aotus, 10 mg/kg/day oral x7
Protocol: (§1) The P. berghei-mouse efficacy data were obtained from the WRAIR chemical information system (subcutaneous testing) or from recent tests conducted at AFRIMS, Thailand or at the University of Miami using a modified version of the Thompson test. Groups of five mice were inoculated through i.p. injection on day 0 (usually with 1×106 P. berghei-parasitized erythrocytes). The drugs in Table 1 were administered either subcutaneously or orally for three days (usually on days 3-5) at doses of 1.25-160 mg/kg in two to four fold increments. Cure was defined as survival until day 60 (subcutaneous dosing) or day 31 post-treatment (oral dosing). […] The minimum effective dose was the lowest dose level that cured at least one of five mice. The Aotus studies were performed according to Obaldia; Detection of Klebsiella pnuumoniae antibodies in Aotus l. lemurinus (Panamanian owl monkey) using an enzyme linked immunosorbent assay (ELIA) test; Lab Anim (25)133-141 (1991) and Obaldia et al., WR 238605, chloroquine, and their combinations as blood schizonticides against a chloroquine-resistant strain of Plasmodium vivax in Aotus monkeys; Am. J. Trop. Med. Hyg. (56)508-510 (1997), which are incorporated by reference, herein. Groups of two Aotus lemurinus 6 lemurinus of the karyotype VIII or IX (27) male and female monkeys with weights ranging from 742-970 g were inoculated with 5×10^6 parasites of either the FVO strain of P. falciparum or the AMRU1 strain of P. vivax. Both of these strains are chloroquine resistant. […] Monkeys were examined and thick Giemsa-stained blood smears were prepared and enumerated daily (17) to monitor the course of infection. […] In some instances, a high dose of the test drug was used to retreat monkeys instead of the mefloquine rescue. Monkeys are considered cured if they are parasite free 90 days post treatment. […] Plasma samples were taken from the monkeys in some studies for quantification of metabolites. Additional blood samples were taken as appropriate for complete blood counts and serum chemistry. Research was conducted in compliance with the Animal Welfare Act and other federal statutes and regulations relating to animals and experiments involving animals and adheres to principles stated in the Guide for the Care and Use of Laboratory Animals, NRC Publication, 1996 edition (34).

[6] = tested on: FVO strain of P. falciparum; test: Efficacy in P. falciparum-challenged Aotus monkeys; type: in vivo, Plasmodium falciparum in Aotus lemurinus lemurinus
Protocol: as §1

Row | Activity against P. falciparum TM91C235 (IC50 in ng/ml) (P. falciparum TM91C235) | TM91C235 IC90 (P. falciparum TM91C235; Table 2) | Mean peak concentration [5] | Plasma conc on day 1 (ng/ml) 2 h ([5]; day 1, 2 h) | Plasma conc on day 1 (ng/ml) 24 h ([5]; day 1, 24 h) | Plasma conc. on day 7 (ng/ml) 2 h ([5]; day 7, 2 h) | Plasma conc. on day 7 (ng/ml) 24 h ([5]; day 7, 24 h) | SMILES | Photo Irritant Factor (PIF) ([1]; UVA 5 J/cm2, potential to be phototoxic if PIF > 5.0) | Minimum phototoxic dose in mice [2] | Yeast minimum phototoxic concentration (yeast) | Phototoxicity in mice [3] | Cure rate [4] | Photo Irritant Factor (PIF) [1] | Outcome in Aotus, earlier studies ([6]; 10 mg/kg/day x7, WRAIR archival data) | Outcome in Aotus ([6]; 10 mg/kg/day x7 oral, groups of two, Cure = parasite free 90 days, R = average day of recrudescence, Failure = rescued with mefloquine)
1 |  |  |  |  |  |  |  | OC(c1cc(-c2ccccc2)nc2c(Cl)cc(Cl)cc12)C1CCCCN1 (stereo not drawn) [WR007930] | 29.0 | Minimum phototoxic dose is 7 mg/kg | 31 mg/ml^c |  |  |  |  | 
2 | 11 ng/mL | 0.052 µg/mL | 307 ng/mL | 597 ng/mL | 11 ng/mL | 16 ng/mL | 5.6 ng/mL | CCCCN(CCCC)CC(O)c1cc(-c2ccc(Cl)c(Cl)c2)nc2c(Cl)cc(Cl)cc12 (stereo not drawn) [WR030090] |  |  |  | are phototoxic^d | at least 88% | 105.7 | cleared but did not cure infections | Failure

From patent US20110092488A1, “Quninoline Methanol Compounds for the Treatment and Prevention of Parasitic Infections” (priority 2005, published 2011)
